Marks after values point to notes of the source that are not given here.
Assays:
[1] = system: anti-OVA IgE antibody titer (PCA titer); test: Suppressive effect on the IgE production against ovalbumin (OVA), PCA titer; type: in vivo, BALB/c mice; settings: 40 mg/kg orally for 10 days; untreated group 9-12
Procedure: Experiment 4 Suppressive Effect on the IgE Production Against Ovalbumin (OVA)
BALB/c mice (female, 8-10 weeks old) and Wistar rats (female, 8-10 weeks old) which were bought from Japan SLC, Inc. (Shizuoka) were used.
BALB/c mice were immunized by an intraperitoneal administration of 0.2 ml suspension of 2 μg of ovalbumin (OVA) and 2 mg of aluminium hydroxide gel in physiological saline. After 10 days, blood was drawn from hearts, sera were separated and stocked at −40° C. till the measurement of an IgE antibody titer.
After the compound of the present invention was dissolved or suspended in N, N-dimethylacetoamide, the mixture was diluted 20 times with miglyol 812 neutral oil. The obtained solution was orally administered to mice at 0.1 ml per mouse. The administration was continued for 10 days from the immunizing day to the day before drawing blood. IPD-1151-T (a compound described in Jpn. Pharmacol. (1993) 61, 31–39) and a compound No. 36 (a compound 36 described in J. Med. Chem. (1997) 40: 395–407) were examined as controls by the same method.
4) Measurement of Anti-OVA IgE Antibody Titer (PCA Titer)
The samples 2-fold diluted with physiological saline were prepared from the obtained mouse serum and each 50 μl of the solution was intradermally injected to backs of Wistar rats which previously hair cut. After 24 hours, a passive cutaneous anaphylaxis reaction (PCA) was induced by an intravenous injection of 0.5 ml of physiological saline containing 1 mg of OVA and 5 mg of Evans' blue dye. After 30 minutes, the rats were sacrified and the highest dilution rate of the serum giving bluing with a diameter of more than 5 mm was recorded as the PCA titer. For example, when a serum is positive for the PCA reaction till […], the anti-OVA IgE antibody titer of the mouse is defined as 7.

[2] = system: IgM production of mouse spleen lymphocytes; test: Suppressive effect on antibody production of mouse spleen lymphocytes: IgM; type: cell-based, BALB/c (nu/nu) mice; settings: Lymphocyte, 240 h, LPS + IL-4, 10 days
Procedure: (§1) Experiment 6 Suppressive Effect on Antibody Production of Mouse Spleen Lymphocytes 1. Experimental Method 1) Animals
(§2) BALB/c (nu/nu) mice were bought from Japan SLC, Inc. (Shizuoka) and 7 weeks old-male mice were used.
(§3) RPMI medium (Nissui Pharmaceutical Co., Ltd.) containing 10% fetal bovine serum (HyClone Lab.) inactivated at 56° C. for 30 minutes, penicillin (100 units/ml) and streptomycin (100 μg/ml) (GIBCO) was used for experiments.
(§4) Each of the compounds was dissolved in dimethylsulfoxide (Nakaraitesk) at […] and diluted with the medium to adjust a final concentration to 0.1 μg/ml −10 μg/ml.
4) Mouse Spleen Lymphocytes […]
(§5) In 96-well cultivating plate (Sumitomo Bakelite Company Limited) mouse spleen lymphocytes were inoculated 2×10^5 cells per well. […] After the cultivation for 10 days, the amount of the antibody in a supernatant was quantified by ELISA method.
7) Quantification of the IgG1, IgG2a and IgM Antibodies
In 96-well plate 50 μl of 10 μg/ml Goat Anti-Mouse Ig (IgM+G+A, H+ L) (Southern Biotechnology, Birmingham) was added and the plate was coated at 4° C. overnight. […] After washing three times with PBST, 100 μl of culture supernatant which was diluted with PBS or 100 μl of an antibody standard solution (Mouse IgG1 standard, Mouse IgG2a standard, Mouse IgM standard, BETHYL Laboratories) of a pre-determined concentration was added and incubated for 1 hour. […]

[3] = system: IgE production of mouse spleen lymphocytes (lipopolysaccharide, IL-4); test: Suppressive effect on antibody production of mouse spleen lymphocytes: IgE; type: cell-based, BALB/c (nu/nu) mice; settings: Lymphocyte, 240 h, LPS + IL-4, 10 days
Procedure: as §1, §2, §3, §4
4) Mouse Spleen Lymphocytes
A spleen of mouse was taken out and put in a cultivating schale which was filled with Hanks' solution. The spleen was crushed and the cells were pushed out from the organ and filtered through a metal mesh (200 mesh). After the collected cell suspension was washed by centrifugation with sterile Hanks' solution (Nissui Pharmaceutical Co., Ltd.), sterile distilled water was added. […]
as §5
6) Quantification of the IgE Antibody
A commercial mouse IgE EIA kit (Yamasa Shoyu Co., Ltd.) was used for the quantification of the IgE. […]

melting point: 93 to 94 °C
IC50 [2]: 3.5 µg/mL
IC50 [3]: 0.00026 ng/mL
Compound: Cc1cc(-c2ccc(OCC=C(Cl)Cl)c(F)c2)c(C)cc1-c1ccc(O)cc1 [Compound I-963]
PCA Titer [1]: 3.6**

From US7101915B1, “P-terphenyl compounds” (Shionogi & Co., Ltd., priority 1996, dated 2006)
